Data taken from patent publication US20260258015A1, “CRYSTALLINE FORMS OF 2-(4-(4-(AMINOMETHYL)-1-OXO-1,2- DIHYDROPHTHALAZIN-6-YL)-1-METHYL-1H- PYRAZOL-5-YL)-4-CHLORO-6-CYCLOPROPOXY-3-FLUOROBENZONITRILE” (MIRATI THERAPEUTICS, INC., priority 2023, published 2026).

Tests used:
[1] = acids (counterions) used in the salt screen of Compound 1; cited from earlier work
[2] = Behaviour of the isolated solid after air drying at ambient condition (hygroscopicity); assay type: physicochemical; conditions: solid from slurry of free base, sulfuric acid and THF; air dried at ambient condition
Experimental: Using the amorphous free base from Example 1, 64 salt screen experiments were conducted using 16 acids in four solvent systems, plus four blank experiments in each respective solvent system. Slurry methods as disclosed herein were used to provide salt polymorphs of Compound 1. […] After magnetically stirring for four days at room temperature, any precipitation was isolated by centrifugation. If there was no precipitation after four days at room temperature, the clear solutions were transferred to stir at 5° C. to induce crystallization for 24 hours. If still no solids were observed, the final clear solution was subjected to slow evaporation at room temperature for four days. Any isolated solid was air dried at ambient condition before analysis.
[…]. As such, DSC/TGA data were not collected.

SMILES | pKa [1] | state of the solid after air drying (hygroscopicity) [2]
O=C(O)CC(O)C(=O)O (centres unmarked) [Malic acid] | 3.16 | –
Cn1ncc(-c2ccc3c(=O)[nH]nc(CN)c3c2)c1-c1c(F)c(Cl)cc(OC2CC2)c1C#N.O=S(=O)(O)O [sulfate salt Form A, 2-(4-(4-(aminomethyl)-1-oxo-1,2-dihydrophthalazin-6-yl)-1-methyl-1H-pyrazol-5-yl)-4-chloro-6-cyclopropoxy-3-fluorobenzonitrile sulfate] | – | remained a wet paste, likely due to hygroscopicity
